Reference: patent publication US20190177286A1, “CRYSTAL MODIFICATIONS OF ELOBIXIBAT” (Elobix AB, priority 2014, published 2019)

Experiment: Dynamic Vapor Sorption (DVS), two sorption-desorption cycles 0-95-0% RH
Format: physicochemical
Details: for phase change from anhydrate to dihydrate, significant change in moisture (sorption curves): DVS sorption cycles
Description: Approximately 2-16 mg of the sample was weighed into a metal receptacle, which was then released of static electricity. The metal receptacle was positioned in a Surface Measurements System Ltd DVS Advantage instrument. The sample was subjected to two consecutive sorption-desorption cycles, each running from 0-95-0% relative humidity (% RH). One cycle consisted of 21 steps, those between 0-90% RH were taken in 10% RH each. At each stage the following equilibrium criteria was used: dm/dt over 5 minutes <0,002% and the minimum and maximum time at each stage were 10 and 360 min respectively.

With `CCCCC1(CCCC)CN(c2ccccc2)c2cc(SC)c(OCC(=O)N[C@@H](C(=O)NCC(=O)O)c3ccccc3)cc2S(=O)(=O)C1` [crystal modification C, N-{(2R)-2-[({[3,3-dibutyl-7-(methylthio)-1,1-dioxido-5-phenyl-2,3,4,5-tetrahydro-1,5-benzothiazepin-8-yl]oxy}acetyl)amino]-2-phenylethanolyl}-glycine] the “phase change from anhydrate to dihydrate, significant change in moisture (sorption curves)” value (listed as C) was 60-70 % RH.

With `CCCCC1(CCCC)CN(c2ccccc2)c2cc(SC)c(OCC(=O)N[C@@H](C(=O)NCC(=O)O)c3ccccc3)cc2S(=O)(=O)C1` [crystal modification F, N-{(2R)-2-[({[3,3-dibutyl-7-(methylthio)-1,1-dioxido-5-phenyl-2,3,4,5-tetrahydro-1,5-benzothiazepin-8-yl]oxy}acetyl)amino]-2-phenylethanolyl}-glycine] the “moisture uptake (DVS isotherm)” value (weight % water versus % RH, two consecutive DVS cycles, FIG. 10) was “linear function of % RH”.

For `CCCCC1(CCCC)CN(c2ccccc2)c2cc(SC)c(OCC(=O)N[C@@H](C(=O)NCC(=O)O)c3ccccc3)cc2S(=O)(=O)C1` [crystal modification L, N-{(2R)-2-[({[3,3-dibutyl-7-(methylthio)-1,1-dioxido-5-phenyl-2,3,4,5-tetrahydro-1,5-benzothiazepin-8-yl]oxy}acetyl)amino]-2-phenylethanolyl}-glycine], the “phase change from anhydrate to dihydrate, significant change in moisture (sorption curves)” value (listed as L) was 40-50 % RH.

In the case of `CCCCC1(CCCC)CN(c2ccccc2)c2cc(SC)c(OCC(=O)N[C@@H](C(=O)NCC(=O)O)c3ccccc3)cc2S(=O)(=O)C1` [crystal modification N, N-{(2R)-2-[({[3,3-dibutyl-7-(methylthio)-1,1-dioxido-5-phenyl-2,3,4,5-tetrahydro-1,5-benzothiazepin-8-yl]oxy}acetyl)amino]-2-phenylethanolyl}-glycine], the “moisture amount where the four DVS curves coincide (dihydrate)” value (DVS, sorption and desorption curves of two cycles) is reported as “around 5 % w/w”.
